Laboratory results from patent publication US11851440B2, “Modulators of eukaryotic initiation factor 2B, compositions and methods” (Denali Therapeutics Inc., priority 2017, dated 2023).
Where two headings read alike, the source gives them in different places.

What was measured:
[1] = target: T1, P-gp (P-glycoprotein, MDR1) (Homo sapiens, UniProt P08183); test: MDCKII-MDR1 permeability, bidirectional assay; assay type: in vitro ADME; conditions: dog, MDCK-MDR1, MDCKII-MDR1 cells, HBSS+12.5 mM HEPES pH 7.4
T1 construct: host or cells: MDCKII-MDR1 cells (pre-plated, Corning HTS Transwell-96)
Description: The blood brain barrier (BBB) separates circulating blood from the extracellular fluid of the central nervous system (CNS). […] A bidirectional assay (Apical to Basolateral (A→B) and Basolateral to Apical (B→A)), in the absence and in the presence of GF120918 (a P-gp inhibitor) was conducted using pre-plated MDCKII-MDR1 cells (Corning HTS Transwell-96) obtained from SOLVO Biotechnology. The assay was run at 3 μM for 90 min (minutes) in triplicate using a HBSS+12.5 mM HEPES pH 7.4 transport buffer. Following incubation of samples from donor and receiver, wells were removed and measured by LC-MS/MS. Samples were extracted by protein precipitation with acetonitrile containing an appropriate internal standard (IS) having a known mass and molecular weight. The precipitate was centrifuged for 10 min at 3000 rpm (revolutions per minute). The supernatants were then collected, diluted if necessary, and injected on to the LC-MS/MS system. Specific parent/daughter ion pairs for the test article and IS were used to selectively measure the test articles. Papp (apparent permeability expressed in nm/sec [nanometer/second]) values were calculated according to the following equation: […]
Where dQ/dt is the permeability rate, C0 is the initial concentration in the donor solution (expressed as IS ratio), A and B are the surface areas of the filter (the surface area of the cell monolayer).
Monolayer efflux ratios (ER) were derived using the following equation: […]

[2] = system: ISR pathway (ATF4 translation); test: ATF4 Nano Luciferase reporter integrated stress response (ISR) assay in H4 ATF4-NLuc cells; conditions: Homo sapiens, compound 30 minutes, then 50 um sodium arsenite for 6 hours, luminescence readout
[3] = read-out: Activity (IC50), H4 ATF4-NLuc (clone 17) cells

T1 sequence (P08183 whole entry): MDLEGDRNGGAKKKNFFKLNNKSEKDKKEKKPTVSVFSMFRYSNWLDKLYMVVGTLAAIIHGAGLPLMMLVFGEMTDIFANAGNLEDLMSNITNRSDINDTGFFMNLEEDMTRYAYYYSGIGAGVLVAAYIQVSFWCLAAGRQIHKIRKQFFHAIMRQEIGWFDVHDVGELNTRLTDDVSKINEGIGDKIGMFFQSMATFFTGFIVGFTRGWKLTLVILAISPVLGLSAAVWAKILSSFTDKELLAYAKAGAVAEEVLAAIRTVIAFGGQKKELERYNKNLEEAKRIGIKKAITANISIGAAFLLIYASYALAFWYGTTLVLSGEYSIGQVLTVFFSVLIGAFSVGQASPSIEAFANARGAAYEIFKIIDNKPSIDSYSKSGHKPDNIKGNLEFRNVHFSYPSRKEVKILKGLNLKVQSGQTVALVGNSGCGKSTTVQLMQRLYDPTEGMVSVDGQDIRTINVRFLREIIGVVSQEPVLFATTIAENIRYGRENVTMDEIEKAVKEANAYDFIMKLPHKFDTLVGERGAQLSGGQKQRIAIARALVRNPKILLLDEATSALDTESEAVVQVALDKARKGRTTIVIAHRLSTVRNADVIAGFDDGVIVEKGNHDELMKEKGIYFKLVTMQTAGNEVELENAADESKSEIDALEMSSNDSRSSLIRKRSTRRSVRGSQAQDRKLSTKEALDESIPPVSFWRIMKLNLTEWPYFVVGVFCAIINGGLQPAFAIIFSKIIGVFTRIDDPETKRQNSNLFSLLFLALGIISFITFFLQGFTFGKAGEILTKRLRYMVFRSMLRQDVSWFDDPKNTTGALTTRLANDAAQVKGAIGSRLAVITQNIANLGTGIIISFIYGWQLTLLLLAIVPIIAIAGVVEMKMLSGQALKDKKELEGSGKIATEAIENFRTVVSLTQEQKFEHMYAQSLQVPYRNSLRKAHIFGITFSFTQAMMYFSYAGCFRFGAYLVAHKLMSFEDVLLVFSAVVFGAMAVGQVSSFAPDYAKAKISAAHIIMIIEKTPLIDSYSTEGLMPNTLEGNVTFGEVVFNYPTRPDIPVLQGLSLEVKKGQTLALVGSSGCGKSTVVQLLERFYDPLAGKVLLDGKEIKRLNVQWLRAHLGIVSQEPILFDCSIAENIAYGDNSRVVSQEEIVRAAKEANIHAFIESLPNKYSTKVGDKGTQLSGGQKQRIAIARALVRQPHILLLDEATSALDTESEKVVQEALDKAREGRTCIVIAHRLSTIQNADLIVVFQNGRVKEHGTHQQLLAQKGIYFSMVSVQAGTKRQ

Compound	efflux ratio at 90 min, 3 μM [1]	IC50 ([2]; H4 ATF4-NLuc (clone 17) cells)	IC50 [2, 3]
O=C(COc1ccc(Cl)c(F)c1)NC12CC(c3nnc([C@@H]4C[C@H]4COC(F)(F)F)o3)(C1)C2 (single isomer, unassigned) [Example 81, 2-(4-chloro-3-fluoro-phenoxy)-N-[3-[5-[2-trans-(trifluoromethoxymethyl)cyclopropyl]-1,3,4-oxadiazol-2-yl]-1-bicyclo[1.1.1]pentanyl]acetamide]	≤ 2.5	0.0118 µM	< 1 µM
O=C(COc1ccc(Cl)c(F)c1)NC12CC(c3nnc(CCCOC(F)(F)F)o3)(C1)C2 [Example 49, 2-(4-chloro-3-fluorophenoxy)-N-(3-(5-(3-(trifluoromethoxy)propyl)-1,3,4-oxadiazol-2-yl)bicyclo[1.1.1]pentan-1-yl)acetamide]	≤ 2.5	0.0182 µM	< 1 µM
O=C(CO[C@H]1C[C@@H](OC(F)(F)F)C1)NC12CC(n3cnc(-c4ccc(Cl)c(F)c4)c3)(C1)C2 [Example 70, N-[3-[4-(4-chloro-3-fluoro-phenyl)imidazol-1-yl]-1-bicyclo[1.1.1]pentanyl]-2-[3-cis-(trifluoromethoxy)cyclobutoxy]acetamide]	≤ 2.5	0.0028 µM	< 1 µM
O=C(COc1ccc(Cl)c(F)c1)NC12CC(NCCO[C@H]3C[C@@H](OC(F)(F)F)C3)(C1)C2 [Example 133, 2-(4-chloro-3-fluoro-phenoxy)-N-[1-[2-[cis-3-(trifluoromethoxy)cyclobutoxy]ethylamino]-3-bicyclo[1.1.1]pentanyl]acetamide]	≤ 2.5	0.0181 µM	< 1 µM
O=C(CO[C@H]1C[C@@H](OC(F)(F)F)C1)NC12CC(n3cnc(-c4ccc(Cl)cc4)c3)(C1)C2 [Example 139, N-(3-(4-(4-chlorophenyl)-1H-imidazol-1-yl)bicyclo[1.1.1]pentan-1-yl)-2-(3-cis-(trifluoromethoxy)cyclobutoxy)acetamide]	≤ 2.5	0.0043 µM	< 1 µM
O=C(CO[C@H]1C[C@@H](OC(F)(F)F)C1)NC12CC(n3cnc(-c4ccc(Cl)cc4F)c3)(C1)C2 [Example 146, N-(3-(4-(4-chloro-2-fluorophenyl)-1H-imidazol-1-yl)bicyclo[1.1.1]pentan-1-yl)-2-(3-cis-(trifluoromethoxy)cyclobutoxy)acetamide]	≤ 2.5	0.0037 µM	< 1 µM
O=C(CO[C@H]1C[C@@H](OC(F)(F)F)C1)NC12CC(c3cnn(-c4ccc(Cl)c(F)c4)c3)(C1)C2 [Example 236, N-(3-(1-(4-chloro-3-fluorophenyl)-1H-pyrazol-4-yl)bicyclo[1.1.1]pentan-1-yl)-2-(3-cis-(trifluoromethoxy)cyclobutoxy)acetamide]	≤ 2.5	0.0215 µM	< 1 µM
O=C(CO[C@H]1C[C@@H](OC(F)(F)F)C1)NC12CC(c3cc(-c4ccc(Cl)c(F)c4)no3)(C1)C2 [Example 248, N-(3-(3-(4-chloro-3-fluorophenyl)isoxazol-5-yl)bicyclo[1.1.1]pentan-1-yl)-2-(3-cis-(trifluoromethoxy)cyclobutoxy)acetamide]	≤ 2.5	0.0282 µM	< 1 µM
O=C(CO[C@H]1C[C@@H](OC(F)(F)F)C1)NC12CC(n3cnc(-c4ccc(C(F)(F)F)cc4O)c3)(C1)C2 [Example 254, N-(3-(4-(2-hydroxy-4-(trifluoromethyl)phenyl)-1H-imidazol-1-yl)bicyclo[1.1.1]pentan-1-yl)-2-(3-cis-(trifluoromethoxy)cyclobutoxy)acetamide]	≤ 2.5	0.0053 µM	< 1 µM
O=C(NC12CC(c3nnc([C@H]4C[C@@H](OC(F)(F)F)C4)o3)(C1)C2)N1CCc2cc(Cl)ccc2C1 [Example 268]	–	–	< 1 µM
O=C(CO[C@H]1C[C@@H](OC(F)(F)F)C1)NC12CC(n3cnc(-c4c(F)cc(Cl)cc4F)c3)(C1)C2 [Example 269]	–	0.0075 µM	< 1 µM
O=C(CO[C@H]1C[C@@H](OC(F)(F)F)C1)NC12CC(n3cnc(-c4ccc(Cl)c(F)c4F)c3)(C1)C2 [Example 270, N-(3-(4-(4-chloro-2,3-difluorophenyl)-1H-imidazol-1-yl)bicyclo[1.1.1]pentan-1-yl)-2-(3-cis-(trifluoromethoxy)cyclobutoxy)acetamide]	≤ 2.5	0.0011 µM	< 1 µM
O=C(CO[C@H]1C[C@@H](OC(F)(F)F)C1)NC12CC(n3cnc(-c4cc(F)c(Cl)cc4F)c3)(C1)C2 [Example 271]	–	–	< 1 µM
O=C(CO[C@H]1C[C@@H](OC(F)(F)F)C1)NC12CC(n3cnc(-c4ccc(C(F)(F)F)cc4CO)c3)(C1)C2 [Example 272]	–	–	< 1 µM
COC(=O)c1cc(C(F)(F)F)ccc1-c1cn(C23CC(NC(=O)CO[C@H]4C[C@@H](OC(F)(F)F)C4)(C2)C3)cn1 [Example 273]	–	–	< 1 µM
CC(COCC(=O)NC12CC(n3cnc(-c4ccc(Cl)c(F)c4)c3)(C1)C2)OC(F)(F)F (stereo not shown) [Example 274]	–	–	< 1 µM
O=C(CO[C@H]1C[C@@H](OC(F)(F)F)C1)NC12CC(c3cnn(-c4ccccc4)c3)(C1)C2 [Example 275]	–	–	< 1 µM
O=C(CO[C@H]1C[C@@H](OC(F)(F)F)C1)NC12CC(c3nnc(OCCOC(F)(F)F)o3)(C1)C2 [Example 276]	–	–	< 1 µM
O=C(NC12CC(c3nnc([C@H]4C[C@@H](OC(F)(F)F)C4)o3)(C1)C2)c1cn(CCOC(F)(F)F)cn1 [Example 277]	–	–	< 1 µM
